{
  "source": "patent US12421317B2",
  "about": "“Polynucleotides encoding anti-glucagon-like peptide 1 receptor (GLP1R) antagonist antibodies” (Regeneron Pharmaceuticals, Inc., priority 2020, dated 2025)",
  "tested_on": "GLP1R humanized mice",
  "assay": "GLP1-induced hypoglycemia (Exendin-4 challenge) in GLP1R humanized mice, glucose AUC (Example 6)",
  "type": "in vivo",
  "conditions": "for Normalized glucose AUC during Exendin-4 challenge: Exendin-4 at 0-min, test article 10 mg/kg s.c., mean",
  "experimental": "Thirty-nine, 2.5-month-old male GLP1R humanized mice were randomly divided into one group of sixteen mice, two groups of eight mice, and one group of seven mice. On Day 0, the group of sixteen animals (Groups 1 and 2) were administered subcutaneously (s.c.) with a hIgG4 isotype control antibody (referred to as isotype control, dose of 10 mg/kg). […] The group of seven animals (Group 5) was administered s.c. (dose of 10 mg/kg) with mAb36986. […] […] At the same time point, animals in Groups 3, 4, and 5 were administered i.p. with Exendin-4 (dose of 0.01 mg/kg). For all animals, blood glucose levels were measured with a handheld glucometer immediately before and 15, 30, 60, and 120 minutes after saline or Exendin-4 administration. All animals remained in their assigned groups until the study completion on Day 80. With animals in Groups 1, 2, 4, and 5, the Exendin-4 challenge was repeated on Days 3, 7, 15, 21, 29, 65, and 80.\nThe AUC value of each animal at each challenge was normalized to the mean AUC value of Group 1. Statistical analyses were performed by one-way ANOVA followed by Bonferroni post-hoc tests, comparing Groups 1, 3, 4, or 5 to Group 2, for each challenge.",
  "note": "Marks after values point to notes of the source that are not given here.",
  "data": [
    {"substance": "Exendin-3 (9-39) amide [Exendin-9, reference compound]", "values": [
      {"measurement": "correction of Exendin-4 induced hypoglycemia", "setting": "10 mg/kg s.c.", "value": "correction of Exendin-4 induced hypoglycemia when Exendin-4 challenge was performed 30 minutes post Exendin-9 administration, but not when the challenge was performed 4.5 or 24 hours post Exendin-9 administration"},
      {"measurement": "Normalized glucose AUC during Exendin-4 challenge", "setting": "0.5 h post test article", "value": "101.3**** % of Group 1"},
      {"measurement": "Normalized glucose AUC during Exendin-4 challenge", "setting": "4.5 h post test article", "value": "70.1 % of Group 1"},
      {"measurement": "Normalized glucose AUC during Exendin-4 challenge", "setting": "24 h post test article", "value": "74.1 % of Group 1"}
    ]}
  ]
}
